Experimental data published in PMC10675077, “Antimicrobial Properties of New Polyamines Conjugated with Oxygen-Containing Aromatic Functional Groups” (Molecules, 2023).
Read-outs that look alike come from different tables or passages of the source.

What was measured:
Type in all cases: cell-based
[1] = system: Saccharomyces cerevisiae BY4741/YEplac195; test: microbe, parasite or virus in culture; conditions: Saccharomyces cerevisiae, 24 h, read-out: MIC, Yeast, BY4741/ YEplac195
Description: (§1) The microorganisms used for the susceptibility tests were the bacteria Escherichia coli JM101 and Staphylococcus aureus BHI, and the yeast Saccharomyces cerevisiae strains BY4741 (MAT a his3Δ1 leu2Δ0 met15Δ0 ura3Δ0 (EUROSCARF)) carrying YEplac195 (from EUROSCARF) or YEPlac195-PDR5 (provided by Ayse Banu Demir, Izmir University of Economics, Turkey) plasmids.
(§2) Bacterial strains were usually maintained and grown in an LB medium (0.5% (w/v) yeast extract, 1% (w/v) bactotryptone, and 1% (w/v) NaCl) at 37 °C. For MIC (minimal inhibitory concentration) and MMC (minimal microbicidal concentration) assays, and for the determination of synergies, overnight growth was carried out in 2% (w/v) bactopeptone (BP), and then the cultures were diluted and incubated for several hours in 2% (w/v) BP for ensuring logarithmic growth. Yeast strains were grown in an SC-ura medium (0.17% (w/v) yeast nitrogen base without amino acids and ammonium sulphate, 0.2% (w/v) drop-out without uracil, 0.5% (w/v) (NH4)2SO4, and 2% (w/v) glucose) at 30 °C. Liquid cultures were incubated with shaking (200 rpm). Solid media also contained 2% (w/v) agar.
(§3) The determination of the MIC for yeast strains was carried out following a similar procedure to that of the polyamines and antifungal reference agents: Serial dilutions of each one in phosphate buffer (20 mM, pH 7.4, 0.5 mL) were prepared and mixed with a suspension of yeast cells (OD600 0.04 in SC-ura 2X (VWR, Atlanta, GA, USA), 0.5 mL). […] Experiments were carried out at least three times in all cases.

[2] = system: Saccharomyces cerevisiae BY4741/YEplac195-PDR5; test: microbe, parasite or virus in culture; conditions: Saccharomyces cerevisiae, 24 h, read-out: MIC, Yeast, BY4741/ PDR5
Description: as §1, §2, §3

[3] = system: Staphylococcus aureus BHI; test: MIC, microdilution in culture medium, S. aureus; conditions: Staphylococcus aureus, 20 h, read-out: MIC, Bacteria, S. aureus BHI
Description: as §1, §2
(§4) For the analysis of the antimicrobial activity, the strategies and indications of Cushnie et al. were considered. The standardised method of microdilution in a culture medium was followed to determine the MIC [55]. In bacterial strains, serial dilutions of the compounds to be tested and the control antibiotics were prepared in phosphate buffer (20 mM, pH 7.4, 0.5 mL) and were mixed with a suspension of bacterial cells in a logarithmic growth phase (in 1% BP, 0.5 mL). The final OD600 of the whole solutions were 0.004 and 0.008 for E. coli and S. aureus cultures, respectively. After 20 h of incubation at 37 °C with shaking, the MIC was determined as the lowest concentration of each compound in which no visible bacterial growth was observed.

Escherichia coli JM101 = test: MIC, microdilution in culture medium, E. coli; conditions: Escherichia coli, read-out: MIC, Bacteria, E. coli JM101
Description: as §1, §2, §4

[4] = 37 °C, average of at least three experiments
[5] = JM101, 20 h, 37 °C, average of at least three experiments
[6] = 30 °C, average of at least three experiments

Row | Compound | MIC [1] [µg/mL] | MIC [2] [µg/mL] | MIC [3] [µg/mL] | MIC (Escherichia coli JM101; JM101, 20 h) [µg/mL] | MIC [3, 4] [µg/mL] | MIC (Escherichia coli JM101; [5]) [µg/mL] | MIC [1, 6] [µg/mL]
1 | c1ccc2c(c1)OCO2 [1,3-Benzodioxole, reference compound] | > 500 | > 500 | > 500 | > 500 |  |  | 
2 | O=C(O)c1cn(C2CC2)c2cc(N3CCNCC3)c(F)cc2c1=O [Ciprofloxacin, reference compound] |  |  |  |  | 0.1 | 0.04 | 
3 | NCCCCNCCCN [Compound 1b, spermidine, reference compound] |  | > 400 |  |  | > 400 | 400 | > 400
4 | NCCCNCCCCNCCCN [Compound 2b, spermine, reference compound] | > 400 | > 400 |  |  | 400 | 100 | 
5 | NCCN(CCN)CCN [Compound 3b, reference compound] |  | > 400 |  |  | 400 | 250 | > 400
6 | NCCCNCCN(CCNCCCN)CCNCCCN [Compound 4b] |  | > 400 |  |  | 250 | 400 | > 400
7 | C[C@@H]1C[C@@H]([C@H](O)CC2CC(=O)NC(=O)C2)C(=O)[C@@H](C)C1 [Cycloheximide, reference compound] | 0.5 | 0.5 |  |  |  |  | 
8 | CNC(C)C1CCC(N)C(OC2C(N)CC(N)C(OC3OCC(C)(O)C(NC)C3O)C2O)O1 (centres unmarked) [Gentamicin, reference compound] |  |  |  |  | 0.04 | 0.02 | 
